Tests used:
[1] = test system: CHEAL (Lambsquarters, Common); test: Preemergence herbicidal evaluation; format: in vivo, Chenopodium album; settings: rated 4-5 weeks after treatment
Method in brief: (§1)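 Seeds were planted in potting soil in cups, then sprayed preemergence with the test compound in aqueous acetone at about 0.0156 to 0.500 kg per hectare. Cups were kept under greenhouse conditions and visually rated 4–5 weeks after treatment on a 0–9 scale against an untreated control.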

CASOB (Sicklepod) = test: Preemergence herbicidal evaluation; format: in vivo, Cassia obtusifolia; settings: rated 4-5 weeks after treatment
Method in brief: as §1

GALAP (Galium) = test: Preemergence herbicidal evaluation; format: in vivo, Galium aparine; settings: rated 4-5 weeks after treatment
Method in brief: as §1

[2] = test system: IPOHE (Morningglory, Ivyleaf); test: Postemergence herbicidal evaluation; format: in vivo, Ipomoea hederacea; settings: postemergence
Method in brief: (§2)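 Two-week seedlings sprayed postemergence at 40 psi; formulation: 1:1 acetone/water, 0.5% TWEEN 20; application ≈0.0156–0.500 kg/ha. Greenhouse grow-out, then 0–9 visual scoring at 4–5 weeks.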

AMBEL (Ragweed, Common) = test: Postemergence herbicidal evaluation; format: in vivo, Ambrosia artemisifolia; settings: postemergence
Method in brief: as §2

ECHCG (Barnyardgrass) [3] = test: Postemergence herbicidal evaluation; format: in vivo, Echinochloa crus-galli; settings: postemergence
Method in brief: as §2

[4] = test system: TRZAWR (Wheat, Winter, cv Riband); test: Postemergence herbicidal evaluation; format: in vivo, Triticum aestivum; settings: postemergence
Method in brief: as §2

ABUTH (Velvetleaf) = test: Postemergence herbicidal evaluation; format: in vivo, Abutilon theophrasti; settings: postemergence
Method in brief: as §2

[5] = test system: ECHORC (Watergrass (Calif.)); test: Postemergence weed control under flooded paddy conditions; format: in vivo, Echinochloa oryzoides; settings: postemergence weeds, 3-4 weeks after treatment
Method in brief: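 Containers holding 3–5 cm weeds and rice at 1.5–2.5 leaves are flooded to 1.5–3 cm above soil. Compound in 50/50 v/v aqueous/acetone is then added directly to the water, about 0.0313–0.500 kg/ha. Plants are kept in the greenhouse and rated 0–9 visually at 3–4 weeks.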

ECHCG (Barnyardgrass) [6] = test: Preemergence herbicidal evaluation; format: in vivo, Echinochloa crus-galli; settings: rated 4-5 weeks after treatment
Method in brief: as §1

ZEAMX (Corn, Field) = test: Preemergence herbicidal evaluation; format: in vivo, Zea mays; settings: rated 4-5 weeks after treatment
Method in brief: as §1

[7] = test system: GLXMAW (Soybean, Williams); test: Postemergence herbicidal evaluation; format: in vivo, Glycine max, (L.) Merr. cv Williams; settings: postemergence
Method in brief: as §2

SETVI (Foxtail, Green) = test: Postemergence herbicidal evaluation; format: in vivo, Setaria viridis; settings: postemergence
Method in brief: as §2

[8] = test system: IPOHE (Morningglory, Ivyleaf); test: Preemergence herbicidal evaluation; format: in vivo, Ipomoea hederacea; settings: rated 4-5 weeks after treatment
Method in brief: as §1

CN(C)N1C(=O)CSC1=Nc1cc(-n2c(=O)cc(C(F)(F)F)n(C)c2=O)c(F)cc1Cl [Compound 23, 3-{4-Chloro-5-{[3-(dimethylamino)-4-oxo-2-thiazolidinylidine]amino}-2-fluorophenyl}-1-methyl-6-(trifluoromethyl)-2,4(1H,3H)-pyrimidinedione]
CHEAL preemergence herbicidal rating ([1]; rate 0.0156 kg/ha): 0.0
CHEAL preemergence herbicidal rating ([1]; rate 0.0313 kg/ha): 1.0
CHEAL preemergence herbicidal rating ([1]; rate 0.0625 kg/ha): 7.0
CHEAL preemergence herbicidal rating ([1]; rate 0.1250 kg/ha): 9.0
CHEAL preemergence herbicidal rating ([1]; rate 0.2500 kg/ha): 9.0
CASOB preemergence herbicidal rating (CASOB (Sicklepod); rate 0.0156 kg/ha): 0.0
CASOB preemergence herbicidal rating (CASOB (Sicklepod); rate 0.0313 kg/ha): 0.0
CASOB preemergence herbicidal rating (CASOB (Sicklepod); rate 0.0625 kg/ha): 1.0
CASOB preemergence herbicidal rating (CASOB (Sicklepod); rate 0.1250 kg/ha): 2.0
CASOB preemergence herbicidal rating (CASOB (Sicklepod); rate 0.2500 kg/ha): 5.0
GALAP preemergence herbicidal rating (GALAP (Galium); rate 0.0156 kg/ha): 0.0
GALAP preemergence herbicidal rating (GALAP (Galium); rate 0.0313 kg/ha): 1.0
GALAP preemergence herbicidal rating (GALAP (Galium); rate 0.0625 kg/ha): 1.0
GALAP preemergence herbicidal rating (GALAP (Galium); rate 0.1250 kg/ha): 0.0
GALAP preemergence herbicidal rating (GALAP (Galium); rate 0.2500 kg/ha): 2.0
IPOHE herbicidal rating ([2]; rate 0.0158 kg/ha): 4.0
IPOHE herbicidal rating ([2]; rate 0.0315 kg/ha): 9.0
IPOHE herbicidal rating ([2]; rate 0.0630 kg/ha): 9.0
AMBEL herbicidal rating (AMBEL (Ragweed, Common); rate 0.0158 kg/ha): 2.0
AMBEL herbicidal rating (AMBEL (Ragweed, Common); rate 0.0315 kg/ha): 4.0
AMBEL herbicidal rating (AMBEL (Ragweed, Common); rate 0.0630 kg/ha): 7.0
ECHCG herbicidal rating (ECHCG (Barnyardgrass) [3]; rate 0.0158 kg/ha): 0.0
ECHCG herbicidal rating (ECHCG (Barnyardgrass) [3]; rate 0.0315 kg/ha): 2.0
ECHCG herbicidal rating (ECHCG (Barnyardgrass) [3]; rate 0.0630 kg/ha): 2.0
TRZAWR herbicidal rating ([4]; rate 0.0158 kg/ha): 2.5
TRZAWR herbicidal rating ([4]; rate 0.0315 kg/ha): 4.0
TRZAWR herbicidal rating ([4]; rate 0.0630 kg/ha): 5.0
ABUTH herbicidal rating (ABUTH (Velvetleaf); rate 0.0158 kg/ha): 3.0
ABUTH herbicidal rating (ABUTH (Velvetleaf); rate 0.0315 kg/ha): 4.0
ABUTH herbicidal rating (ABUTH (Velvetleaf); rate 0.0630 kg/ha): 5.0
Herbicidal rating ECHORC ([5]; rate 0.1160 kg/ha): 4.0
Herbicidal rating ECHORC ([5]; rate 0.2310 kg/ha): 4.0
Herbicidal rating ECHORC ([5]; rate 0.4630 kg/ha): 4.0
ECHCG preemergence herbicidal rating (ECHCG (Barnyardgrass) [6]; rate 0.0156 kg/ha): 0.0
ECHCG preemergence herbicidal rating (ECHCG (Barnyardgrass) [6]; rate 0.0313 kg/ha): 1.0
ECHCG preemergence herbicidal rating (ECHCG (Barnyardgrass) [6]; rate 0.0625 kg/ha): 2.0
ECHCG preemergence herbicidal rating (ECHCG (Barnyardgrass) [6]; rate 0.1250 kg/ha): 4.0
ECHCG preemergence herbicidal rating (ECHCG (Barnyardgrass) [6]; rate 0.2500 kg/ha): 6.0
ZEAMX preemergence herbicidal rating (ZEAMX (Corn, Field); rate 0.0156 kg/ha): 0.0
ZEAMX preemergence herbicidal rating (ZEAMX (Corn, Field); rate 0.0313 kg/ha): 1.0
ZEAMX preemergence herbicidal rating (ZEAMX (Corn, Field); rate 0.0625 kg/ha): 2.0
ZEAMX preemergence herbicidal rating (ZEAMX (Corn, Field); rate 0.1250 kg/ha): 5.0
ZEAMX preemergence herbicidal rating (ZEAMX (Corn, Field); rate 0.2500 kg/ha): 7.0
GLXMAW herbicidal rating ([7]; rate 0.0158 kg/ha): 3.0
GLXMAW herbicidal rating ([7]; rate 0.0315 kg/ha): 3.5
GLXMAW herbicidal rating ([7]; rate 0.0630 kg/ha): 5.0
SETVI herbicidal rating (SETVI (Foxtail, Green); rate 0.0158 kg/ha): 2.0
SETVI herbicidal rating (SETVI (Foxtail, Green); rate 0.0315 kg/ha): 4.0
SETVI herbicidal rating (SETVI (Foxtail, Green); rate 0.0630 kg/ha): 4.0
IPOHE preemergence herbicidal rating ([8]; rate 0.0156 kg/ha): 0.0
IPOHE preemergence herbicidal rating ([8]; rate 0.0313 kg/ha): 0.0
IPOHE preemergence herbicidal rating ([8]; rate 0.0625 kg/ha): 1.0
IPOHE preemergence herbicidal rating ([8]; rate 0.1250 kg/ha): 5.0
IPOHE preemergence herbicidal rating ([8]; rate 0.2500 kg/ha): 9.0

CCOC(=O)CN1C(=O)C(Cc2ccccc2)SC1=Nc1cc(-n2c(=O)cc(C(F)(F)F)n(C)c2=O)c(F)cc1Cl (stereo not drawn) [Compound 24, Ethyl 5-benzyl-2-{{2-chloro-5-[3,6-dihydro-3-methyl-2,6-dioxo-4-(trifluoromethyl)-1(2H)-pyrimidinyl]-4-fluorophenyl}imino}-4-oxo-3-thiazolidineacetate]
CHEAL preemergence herbicidal rating ([1]; rate 0.0625 kg/ha): 9.0
CHEAL preemergence herbicidal rating ([1]; rate 0.1250 kg/ha): 9.0
CHEAL preemergence herbicidal rating ([1]; rate 0.2500 kg/ha): 9.0
CASOB preemergence herbicidal rating (CASOB (Sicklepod); rate 0.0625 kg/ha): 0.0
CASOB preemergence herbicidal rating (CASOB (Sicklepod); rate 0.1250 kg/ha): 0.0
CASOB preemergence herbicidal rating (CASOB (Sicklepod); rate 0.2500 kg/ha): 0.0
GALAP preemergence herbicidal rating (GALAP (Galium); rate 0.0625 kg/ha): 0.0
GALAP preemergence herbicidal rating (GALAP (Galium); rate 0.1250 kg/ha): 0.0
GALAP preemergence herbicidal rating (GALAP (Galium); rate 0.2500 kg/ha): 4.0
IPOHE herbicidal rating ([2]; rate 0.0158 kg/ha): 2.0
IPOHE herbicidal rating ([2]; rate 0.0315 kg/ha): 9.0
AMBEL herbicidal rating (AMBEL (Ragweed, Common); rate 0.0158 kg/ha): 2.0
AMBEL herbicidal rating (AMBEL (Ragweed, Common); rate 0.0315 kg/ha): 3.0
AMBEL herbicidal rating (AMBEL (Ragweed, Common); rate 0.0630 kg/ha): 9.0
ECHCG herbicidal rating (ECHCG (Barnyardgrass) [3]; rate 0.0158 kg/ha): 0.0
ECHCG herbicidal rating (ECHCG (Barnyardgrass) [3]; rate 0.0315 kg/ha): 0.0
ECHCG herbicidal rating (ECHCG (Barnyardgrass) [3]; rate 0.0630 kg/ha): 0.0
TRZAWR herbicidal rating ([4]; rate 0.0158 kg/ha): 3.5
TRZAWR herbicidal rating ([4]; rate 0.0315 kg/ha): 3.5
TRZAWR herbicidal rating ([4]; rate 0.0630 kg/ha): 3.5
ABUTH herbicidal rating (ABUTH (Velvetleaf); rate 0.0158 kg/ha): 9.0
ABUTH herbicidal rating (ABUTH (Velvetleaf); rate 0.0315 kg/ha): 9.0
ABUTH herbicidal rating (ABUTH (Velvetleaf); rate 0.0630 kg/ha): 9.0
Herbicidal rating ECHORC ([5]; rate 0.0313 kg/ha): 4.0
Herbicidal rating ECHORC ([5]; rate 0.0625 kg/ha): 9.0
Herbicidal rating ECHORC ([5]; rate 0.1250 kg/ha): 9.0
Herbicidal rating ECHORC ([5]; rate 0.2500 kg/ha): 9.0
ECHCG preemergence herbicidal rating (ECHCG (Barnyardgrass) [6]; rate 0.0625 kg/ha): 0.0
ECHCG preemergence herbicidal rating (ECHCG (Barnyardgrass) [6]; rate 0.1250 kg/ha): 0.0
ECHCG preemergence herbicidal rating (ECHCG (Barnyardgrass) [6]; rate 0.2500 kg/ha): 0.0
ZEAMX preemergence herbicidal rating (ZEAMX (Corn, Field); rate 0.0625 kg/ha): 0.0
ZEAMX preemergence herbicidal rating (ZEAMX (Corn, Field); rate 0.1250 kg/ha): 0.0
ZEAMX preemergence herbicidal rating (ZEAMX (Corn, Field); rate 0.2500 kg/ha): 1.0
GLXMAW herbicidal rating ([7]; rate 0.0158 kg/ha): 4.0
GLXMAW herbicidal rating ([7]; rate 0.0315 kg/ha): 5.0
GLXMAW herbicidal rating ([7]; rate 0.0630 kg/ha): 5.5
SETVI herbicidal rating (SETVI (Foxtail, Green); rate 0.0158 kg/ha): 0.0
SETVI herbicidal rating (SETVI (Foxtail, Green); rate 0.0315 kg/ha): 0.0
SETVI herbicidal rating (SETVI (Foxtail, Green); rate 0.0630 kg/ha): 0.0
IPOHE preemergence herbicidal rating ([8]; rate 0.0625 kg/ha): 0.0
IPOHE preemergence herbicidal rating ([8]; rate 0.1250 kg/ha): 0.0
IPOHE preemergence herbicidal rating ([8]; rate 0.2500 kg/ha): 0.0

Reference: patent US20020137929A1, “1 - (3-heterocyclylphenyl) isothiourea, -isourea, -guanidine and -amidine herbicidal agents” (Intellectual Property Department, BASF Aktiengesellschaft, priority 1998, published 2002)
